In publication PMC9828044 (RSC Advances, 2023):
One block for each molecule: values may come before it.

What was measured:
[1] = biological target: T1, MAO A (Rattus norvegicus, UniProt P21396); test: Monoamine oxidase A; assay type: biochemical; settings: for dual inhibition on MAO A and MAO B: both isoforms; for dual inhibition on MAO A and MAO B / selective inhibition toward MAO A: in words; for inhibition at 100 µM: read-out: MAO A % inhibition; for selective inhibition toward MAO A: MAO A versus MAO B
T1 sequence (P21396 1-526): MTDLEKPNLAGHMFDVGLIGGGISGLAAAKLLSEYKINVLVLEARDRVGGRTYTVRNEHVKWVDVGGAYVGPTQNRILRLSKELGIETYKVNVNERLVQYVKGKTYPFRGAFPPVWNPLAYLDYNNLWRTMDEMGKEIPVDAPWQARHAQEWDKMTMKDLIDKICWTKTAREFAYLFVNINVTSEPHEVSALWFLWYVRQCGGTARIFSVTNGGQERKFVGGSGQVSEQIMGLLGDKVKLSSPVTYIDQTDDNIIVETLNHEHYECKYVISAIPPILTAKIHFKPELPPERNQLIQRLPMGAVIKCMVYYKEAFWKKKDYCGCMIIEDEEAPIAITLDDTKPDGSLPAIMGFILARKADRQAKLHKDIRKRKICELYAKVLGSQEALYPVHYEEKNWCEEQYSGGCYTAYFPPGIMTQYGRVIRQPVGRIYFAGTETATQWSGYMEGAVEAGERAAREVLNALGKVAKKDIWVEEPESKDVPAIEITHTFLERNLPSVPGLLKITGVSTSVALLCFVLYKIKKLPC

[2] = biological target: T2, MAO B (Rattus norvegicus, UniProt P19643); test: Monoamine oxidase B; assay type: biochemical; settings: for selective inhibition toward MAO B: MAO B versus MAO A, in words; for inhibition at 100 µM: read-out: MAO B % inhibition
T2 sequence (P19643 1-520): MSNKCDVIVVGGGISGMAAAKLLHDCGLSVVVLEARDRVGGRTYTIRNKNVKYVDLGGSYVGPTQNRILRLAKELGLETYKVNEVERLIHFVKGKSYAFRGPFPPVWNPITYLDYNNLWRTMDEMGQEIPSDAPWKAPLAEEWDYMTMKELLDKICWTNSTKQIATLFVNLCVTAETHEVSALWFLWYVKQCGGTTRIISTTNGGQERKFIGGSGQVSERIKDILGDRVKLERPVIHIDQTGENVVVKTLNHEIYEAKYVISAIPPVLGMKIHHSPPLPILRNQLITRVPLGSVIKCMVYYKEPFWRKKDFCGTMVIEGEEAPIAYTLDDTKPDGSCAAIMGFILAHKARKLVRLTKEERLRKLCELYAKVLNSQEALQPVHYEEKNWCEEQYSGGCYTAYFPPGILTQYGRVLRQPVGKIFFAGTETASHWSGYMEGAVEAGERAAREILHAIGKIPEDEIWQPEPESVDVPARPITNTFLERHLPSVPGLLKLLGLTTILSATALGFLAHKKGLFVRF

Compound: COc1ccc2cc(C=NN=C3CS(=O)(=O)N(C)c4ccccc43)c(Cl)nc2c1 [7e, 4-(((2-Chloro-7-methoxyquinolin-3-yl)methylene)hydrazono)-1-methyl-3,4-dihydro-1H-benzo[c][1,2]thiazine 2,2-dioxide]
dual inhibition on MAO A and MAO B [1]: dual inhibition on MAO A as well as MAO B

Compound: Cc1ccc2cc(C=NN=C3CS(=O)(=O)N(C)c4ccccc43)c(Cl)nc2c1 [7d, 4-(((2-Chloro-7-methylquinolin-3-yl)methylene)hydrazono)-1-methyl-3,4-dihydro-1H-benzo[c][1,2]thiazine 2,2-dioxide]
dual inhibition on MAO A and MAO B [1]: dual inhibition on MAO A as well as MAO B

Compound: CC(=NN=C1CS(=O)(=O)N(C)c2ccccc21)c1ccc(Cl)s1 [9g, 4-((1-(5-Chlorothiophen-2-yl)ethylidene)hydrazono)-1-methyl-3,4-dihydro-1H-benzo[c][1,2]thiazine 2,2-dioxide]
dual inhibition on MAO A and MAO B [1]: dual inhibition on MAO A as well as MAO B

Compound: CC(=NN=C1CS(=O)(=O)N(C)c2ccccc21)c1cc(Cl)sc1Cl [9k, 4-((1-(2,5-Dichlorothiophen-3-yl)ethylidene)hydrazono)-1-methyl-3,4-dihydro-1H-benzo[c][1,2]thiazine 2,2-dioxide]
dual inhibition on MAO A and MAO B [1]: dual inhibition on MAO A as well as MAO B

Compound: COc1ccc2nc(Cl)c(C=NN=C3CS(=O)(=O)N(C)c4ccccc43)cc2c1 [7c, 4-(((2-Chloro-6-methoxyquinolin-3-yl)methylene)hydrazono)-1-methyl-3,4-dihydro-1H-benzo[c][1,2]thiazine 2,2-dioxide]
selective inhibition toward MAO A [1]: significant selective inhibition toward MAO A
inhibition at 100 µM [2]: 35.8%

Compound: Cc1ccc2nc(Cl)c(C=NN=C3CS(=O)(=O)N(C)c4ccccc43)cc2c1 [7b, 4-(((2-Chloro-6-methylquinolin-3-yl)methylene)hydrazono)-1-methyl-3,4-dihydro-1H-benzo[c][1,2]thiazine 2,2-dioxide]
dual inhibition on MAO A and MAO B [1]: dual inhibition on MAO A as well as MAO B

Compound: CN1c2ccccc2C(=NN=Cc2cc3ccc(Cl)cc3nc2Cl)CS1(=O)=O [7f, 4-(((2,7-Dichloroquinolin-3-yl)methylene)hydrazono)-1-methyl-3,4-dihydro-1H-benzo[c][1,2]thiazine 2,2-dioxide]
dual inhibition on MAO A and MAO B [1]: dual inhibition on MAO A as well as MAO B
inhibition at 100 µM [1]: 2.03 ± 0.91%

Compound: CN1c2ccccc2C(=NN=Cc2cc3ccccc3nc2Cl)CS1(=O)=O [7a, 4-(((2-Chloroquinolin-3-yl)methylene)hydrazono)-1-methyl-3,4-dihydro-1H-benzo[c][1,2]thiazine 2,2-dioxide]
inhibition at 100 µM [1]: 38.8%
inhibition at 100 µM [2]: 43.6%

More lines, main results first:

inhibition at 100 µM [1]: 39.8%
Compound: CC(=NN=C1CS(=O)(=O)N(C)c2ccccc21)c1ccc([N+](=O)[O-])s1 [9i, 1-Methyl-4-((1-(5-nitrothiophen-2-yl)ethylidene)hydrazono)-3,4-dihydro-1H-benzo[c][1,2]thiazine 2,2-dioxide]
selective inhibition toward MAO B [2]: selective inhibition toward the MAO B enzyme

inhibition at 100 µM [1]: 39.1%
Compound: CC(=NN=C1CS(=O)(=O)N(C)c2ccccc21)c1cc(C)cs1 [9c, 1-Methyl-4-((1-(4-methylthiophen-2-yl)ethylidene)hydrazono)-3,4-dihydro-1H-benzo[c][1,2]thiazine 2,2-dioxide]

inhibition at 100 µM [2]: 31.1%
Compound: CC(=NN=C1CS(=O)(=O)N(C)c2ccccc21)c1ccc(C)s1 [9d, 1-Methyl-4-((1-(5-methylthiophen-2-yl)ethylidene)hydrazono)-3,4-dihydro-1H-benzo[c][1,2]thiazine 2,2-dioxide]
selective inhibition toward MAO A [1]: significant selective inhibition toward MAO A

inhibition at 100 µM [1]: 26.3%
Compound: CC(=NN=C1CS(=O)(=O)N(C)c2ccccc21)c1cc(C)sc1C [9j, 4-((1-(2,5-Dimethylthiophen-3-yl)ethylidene)hydrazono)-1-methyl-3,4-dihydro-1H-benzo[c][1,2]thiazine 2,2-dioxide]
selective inhibition toward MAO B [2]: selective inhibition toward the MAO B enzyme

inhibition at 100 µM [2]: 41.9%
Compound: CC(=NN=C1CS(=O)(=O)N(C)c2ccccc21)c1sccc1Cl [9e, 4-((1-(3-Chlorothiophen-2-yl)ethylidene)hydrazono)-1-methyl-3,4-dihydro-1H-benzo[c][1,2]thiazine 2,2-dioxide]

inhibition at 100 µM [1]: 28.4%
Compound: CC(=NN=C1CS(=O)(=O)N(C)c2ccccc21)c1ccc(Br)s1 [9h, 4-((1-(5-Bromothiophen-2-yl)ethylidene)hydrazono)-1-methyl-3,4-dihydro-1H-benzo[c][1,2]thiazine 2,2-dioxide]
selective inhibition toward MAO B [2]: selective inhibition toward the MAO B enzyme

inhibition at 100 µM [1]: 2.09 ± 0.89%
Compound: CC(=NN=C1CS(=O)(=O)N(C)c2ccccc21)c1cccs1 [9a, 1-Methyl-4-((1-(thiophen-2-yl)ethylidene)hydrazono)-3,4-dihydro-1H-benzo[c][1,2]thiazine 2,2-dioxide]

inhibition at 100 µM [1]: 41.6%
Compound: CC(=NN=C1CS(=O)(=O)N(C)c2ccccc21)c1sccc1Br [9f, 4-((1-(3-Bromothiophen-2-yl)ethylidene)hydrazono)-1-methyl-3,4-dihydro-1H-benzo[c][1,2]thiazine 2,2-dioxide]
selective inhibition toward MAO B [2]: selective inhibition toward the MAO B enzyme

inhibition at 100 µM [1]: 38.5%
Compound: CC(=NN=C1CS(=O)(=O)N(C)c2ccccc21)c1sccc1C [9b, 1-Methyl-4-((1-(3-methylthiophen-2-yl)ethylidene)hydrazono)-3,4-dihydro-1H-benzo[c][1,2]thiazine 2,2-dioxide]
